Earlier results on 1 molecule are cited in patent US20050084461A1, “Tooth enamel rejuvenating toothpaste” (priority 2003, published 2005).

For this series the following is noted: pH of about 7.0, temperature of about 25° C.

Turning to `O.O.O=P([O-])([O-])O.[Ca+2]` [dicalcium phosphate dihydrate], the “calcium cations released in aqueous solution” value is recorded as “about 40 ppm”.
